“Also recorded” adds a separate entry of the source. Like-named read-outs stand apart in the source and are kept apart here.
What was measured:
Assay type in all cases: cell-based, human
[1] = system: U937 (CD20 negative leukemia cell line); assay: Cell viability, Cell Titer Glo luminescent assay (Examples 12, 16, 19, 20, 22); conditions: for IC50, U937 (CD20 negative) 2-46 h: U937, 2-46 h (membrane integrity and viability time points), Example 12; for IC50, U937 2-48 h: Example 16
Experimental: (§1) Naked antibody anti-CD20-IgG1-Phor18 were chemically conjugated (MS4A and AT80), Mw app.158,000 g/mol at a concentrations of 0.34 mg/ml (MS4A-Phor18) and 0.76 mg/ml (AT-80-Phor18). Cell lines were obtained at the American Type Cell Collection (Mannassas, Va.). Human Non-Hodgkin's lymphoma cells Daudi (CD20 positive, passage number p2), Raji (CD20 positive p 2) and human leukemia cell line U937 (CD20 negative, p 10) were seeded at a density of 3,000 cells per well in opaque plates in heat inactivated full medium. After 24 hours cells were replenished with fresh media (75 μl) and incubated with 25 μl of a 4× serial dilution of MS4A1-Phor18 and AT80-Phor18 of 0.001, 0.01, 0.1, 1, 10, 100 and 500 nM (N=6). Cells incubated for 2-5 hours were assayed for membrane integrity using a luminometric assay kit (Promega, Madison, Wis., Cytotox Glo G9292 lot #301329). Cell viability was determined was determined after 24, and 48 hours using a luminescent assay kit (Promega, Madison, Wis., Cell Titer Glo, G 7572, lot 30068102).
(§2) The concentration of each naked antibody fragment and ADC was determined according to Bradford. Naked antibody scFv Mw 27,088 g/mol at a concentration of 0.3 mg/ml, minibody Mw 78,988 g/mol, 0.231 mg/ml; Phor 18 conjugated antibodies were scFv-Phor18 (Mw 29,349 g/mol, 0.9 mg/ml) and minibody-Phor18 (Mw 93,515, 0.48 mg/ml). Cell lines were obtained at the American Type Cell Collection (Mannassas, Va.). Human Non-Hodgkin's lymphoma cells Daudi (CD20 positive, passage number p8) and human leukemia cell line U937 (CD20 negative, p 16) were seeded at a density of 2,000 cells per well in opaque plates in heat inactivated full medium. After 24 hours cells were replenished with fresh media (75 μl) and incubated with 25 μl of a 4× serial dilution of scFv-Phor18 and minibody-Phor18 ADC and naked antibody fragment (scFv and minibody) prepared in cell culture media were added at concentrations of 0.0001, 0.001, 0.01, 0.1, 1, 10, 100, 200, and 500 nM (N=6). Cells incubated for 4 hours were assayed for membrane integrity using a luminometric assay kit (Promega, Madison, Wis., Cytotox Glo G9292 lot #301329). Cell viability was determined was determined after 24, 48 and 72 hours using a luminescent assay kit (Promega, Madison, Wis., Cell Titer Glo, G 7572, lot 30062102).
(§3) The concentration of each naked antibody fragment and ADC was determined spectrophotometrically (OD280). Naked antibody scFv-Fc Mw 52,562 g/mol at a concentration of 1.1 mg/ml, Phor 18 conjugated antibodies were Phor18-VL-scFvFc (Mw 54,685 g/mol, 1.0 mg/ml), scFv-Fc-CH3-Phor18 (Mw 54,685 g/mol, 0.8 mg/ml). Human Non-Hodgkin's lymphoma cells Daudi (CD20 positive, passage number p7) and human leukemia cell line U937 (CD20 negative, p 6) were seeded at a density of 2,000 cells per well in opaque plates in heat inactivated full medium using cell dissociation buffer. After 24 hours cells were replenished with fresh media (75 μl) and incubated and incubated with 25 μl of a 4× serial dilution of each ADC and naked antibody prepared in cell culture media were added at concentrations of 0.01, 0.1, 1, 10, 100, 200 and 500 nM for scFvFc, Phor18-VL-scFvFc and scFv-Fc-CH3-Phor18.
(§4) Cells incubated for 4 hours were assayed for membrane integrity using a luminometric assay kit (Promega, Madison, Wis., Cytotox Glo G9292 lot #26229601). Cell viability was determined was determined after 24 hours using a luminescent assay kit (Promega, Madison, Wis., Cell Titer Glo, G 7572, lot 30731602). Controls for 100% cell viability (culture media) and 100% cell death (0.1% Triton X 100) incubated under the same conditions.
Human Non-Hodgkin's lymphoma cells Daudi (CD20 positive, passage number p3) and human leukemia cell line U937 (CD20 negative, p 12) were seeded at a density of 2,000 cells per well in opaque plates in heat inactivated full medium using cell dissociation buffer. […]

[2] = system: Daudi (CD20 positive Non-Hodgkin's lymphoma cells); assay: Membrane integrity, Cytotox Glo luminometric assay (Examples 12, 16, 19, 20, 22); conditions: membrane integrity
Experimental: as §1, §2
(§5) Controls for 100% cell viability (culture media) and 100% cell death (0.1% Triton X 100) incubated under the same conditions.
(§6) Data were processed and analyzed to obtain IC50 values using Graph Pad Prizm version 5.00 for Windows, GraphPad Software, San Diego Calif. USA, www-graphpad-com (Graph Pad Prizm, Inc). Statistical analysis for significance was determined by a two-tailed Student's T-test. Each test was conducted using 2 plates with 2-3 wells each to achieve an N of 4-6 data points per time point.
as §3
as §4, with “Controls for 100% cell viability (culture media) and 100% cell death (0.1% Triton X 100) incubated under the same conditions.” left out

[3] = system: Raji (CD20 positive Non-Hodgkin's lymphoma cells); assay: Cell viability, Cell Titer Glo luminescent assay (Example 12)
Experimental: as §1

[4] = system: Daudi (CD20 positive Non-Hodgkin's lymphoma cells); assay: Cell viability, Cell Titer Glo luminescent assay (Examples 12, 16, 19, 20, 22)
Experimental: as §1, §2, §5, §6, §3
as §4, with “Controls for 100% cell viability (culture media) and 100% cell death (0.1% Triton X 100) incubated under the same conditions.” left out

[5] = system: Raji (CD20 positive Non-Hodgkin's lymphoma cells); assay: Membrane integrity, Cytotox Glo luminometric assay (Example 12)
Experimental: as §1

[6] = system: caspase 3/7 in Daudi cells (CD20 positive); assay: Caspase 3/7 activation, Caspase Glo 3/7 luminometric assay (Examples 13, 17); conditions: 5 hours; scFv-Phor18 or scFv at 5 and 15 μg/ml; Staurosporine 10 μM = 100%; Daudi (Raji also seeded)
Experimental: Human Non-Hodgkin's lymphoma cells Daudi (CD20 positive, passage number p2), were seeded at a density of 3,000 cells per well in opaque plates in heat inactivated full medium. After 24 hours cells were fed with fresh media (75 μl) and incubated with AT80-Phor18 (0.76 mg/ml) or naked antibody AT-80 of 15 and 75 μg/ml (100 and 500 nM) (N=6). Staurosporine at 10 μM served as positive control for caspase 3/7 activation. After 5 hours of incubatin cultures were assayed for caspase 3/7 levels using a luminometric assay kit (Promega, Madison, Wis., Caspase Glo 3/7 G811C lot #28731802).
Caspase 3/7 activation was calculated from relative light units from luminometric signals. Staurosporine was set at 100% caspase 3/7 activation, cell suspension alone without additions of reagents served as 0% caspase levels.
In in vitro studies, caspase activation of recombinantly expressed CD20 targeting scFv-Phor18 conjugate with “naked” antibody (scFv) in CD20 positive cells (Daudi Burkitt's lymphoma) was compared. Human Non-Hodgkin's lymphoma cells Daudi (CD20 positive, p 5) and Raji (CD20 positive, passage number p 3), were seeded at a density of 3,000 cells per well in opaque plates in heat inactivated full medium. […]
Relative caspase 3/7 activation was calculated from relative light units from luminometric signals. […]

[7] = Example 12, listed as MS4A1-Phor18
[8] = 46 h (text: 48 h / 46 hours), Example 16

Molecule: Anti-CD20 MS4A1: naked anti-CD20 antibody MS4A1 (Rituximab Like, R&D) [reference compound]
- IC50, U937 (CD20 negative) 2-46 h [1]: Not toxic
- IC50, Daudi 2 h ([2]; Example 12): Not toxic
- IC50, Daudi 5 h ([2]; Example 12): Not toxic
- IC50, Raji 24 h ([3]; 24 h): Not toxic
- IC50, Raji 46 h ([3]; 46 h (text: 48 h)): Not toxic
- IC50, Daudi 24 h ([4]; 24 h, Example 12): Not toxic
- IC50, Daudi 46 h ([4]; 46 h (text: 48 h), Example 12): Not toxic

Molecule: Anti-CD20-Phor18 (MS4A1)
- IC50, U937 (CD20 negative) 2-46 h [1]: Not toxic
- IC50, Raji 2 h ([5]; 2 h): not active
- IC50, Raji 5 h ([5]; 5 h): not active
- IC50, Daudi 2 h ([2]; Example 12): Not toxic
- IC50, Daudi 2 h [2, 7]: not active
- IC50, Daudi 5 h ([2]; Example 12): Not toxic
- IC50, Daudi 5 h [2, 7]: not active
- IC50 ([3]; 24 h, listed as MS4A1-Phor18, read-out: IC50, Raji 24 h): 267 ± 13 nM
- IC50 ([3]; 24 h, read-out: IC50, Raji 24 h): 267 ± 13 nM
- IC50 ([3]; 46 h (text: 48 h), read-out: IC50, Raji 46 h): 227 ± 11 nM
- IC50 ([4]; 24 h, Example 12, read-out: IC50, Daudi 24 h): 10.6 ± 2.1 nM
- IC50 ([4]; 46 h (text: 48 h), Example 12, read-out: IC50, Daudi 46 h): 3 ± 1.2 nM

B1: Fv-CH3-CH3-Fv: naked bivalent anti-CD20 minibody, E. coli, SEQ ID NO.:94 (protein)
chain: DIQLTQSPAILSASPGEKVTMTCRASSSVSYIHWFQQKPGSSPKPWIYATSNLASGVPVRFSGSGSGTSYSLTISRVEAEDAATYYCQQWTSNPPTFGGGTKLEIGSTSGGGSGGGSGGGGSSVQLQQPGAELVKPGASVKMSCKASGYTFTSYNMHWVKQTPGRGLEWIGAIYPGNGDTSYNQKFKGKATLTADKSSSTAYMQLSSLTSEDSAVYYCARSTYYGGDWYFDVWGQGTTVTVSSGQPREPQVYTLPPSRDELTKNQVSLTCLVKGFYPSDIAVEWESNGQPENNYKTTPPVLDSDGSFFLYSKLTVDKSRWQQGNVFSCSVMHEALHNHYTQKSLSLSPGKGSTSGGGSGGGSGGGGSSGQPREPQVYTLPPSRDELTKNQVSLTCLVKGFYPSDIAVEWESNGQPENNYKTTPPVLDSDGSFFLYSKLTVDKSRWQQGNVFSCSVMHEALHNHYTQKSLSLSPGKVQLQQPGAELVKPGASVKMSCKASGYTFTSYNMHWVKQTPGRGLEWIGAIYPGNGDTSYNQKFKGKATLTADKSSSTAYMQLSSLTSEDSAVYYCARSTYYGGDWYFDVWGQGTTVTVSSGSTSGGGSGGGSGGGGSSDIQLTQSPAILSASPGEKVTMTCRASSSVSYIHWFQQKPGSSPKPWIYATSNLASGVPVFSGSGSGTSYSLTISRVEAEDAATYYCQQWTSNPPTFGGGTKLEI
- IC50, U937 2-48 h [1]: Not toxic
- IC50, Daudi 24 h ([4]; 24 h, Example 16): Not toxic
- IC50, Daudi 46 h [4, 8]: Not toxic

B2: scFv: naked single chain Fv anti-CD20 fragment with Rituxan CDRs, E. coli, SEQ ID NO.:92 (protein)
scFv: HHHHHHDIQLTQSPAILSASPGEKVTMTCRASSSVSYIHWFQQKPGSSPKPWIYATSNLASGVPVRFSGSGSGTSYSLTISRVEAEDAATYYCQQWTSNPPTFGGGTKLEIGSTSGGGSGGGSGGGGSSVQLQQPGAELVKPGASVKMSCKASGYTFTSYNMHWVKQTPGRGLEWIGAIYPGNGDTSYNQKFKGKATLTADKSSSTAYMQLSSLTSEDSAVYYCARSTYYGGDWYFDVWGQGTTVTVSS
- IC50, U937 2-48 h [1]: not killed; also recorded: Not toxic
- Caspase 3/7 levels compared to Staurosporine [6]: did not detectably activate caspases
- IC50, Daudi 2 h ([2]; E. coli expressed, Example 16): Not toxic
- IC50, Daudi 5 h ([2]; E. coli expressed, Example 16): Not toxic
- IC50, Daudi 24 h ([4]; 24 h, Example 16): Not toxic
- IC50, Daudi 46 h [4, 8]: Not toxic

— US20190367558A1, “ANTIBODY/DRUG CONJUGATES AND METHODS OF USE” (ESPERANCE PHARMACEUTICALS, INC., priority 2012, published 2019)
